# From patent publication US7030130B2, “Benzofuran derivatives and their use as antibacterial agents” (Arpida AG, priority 2000, dated 2006)
# Columns and labels:
# Test in all cases: Antimicrobial susceptibility testing (NCCLS M7-A5), MIC
# Assay type in all cases: cell-based
# [1] = test system: Bacillus subtilis ATCC 6051; settings: ATCC6051, in vitro, read-out: Minimum Inhibitory Concentration (MIC)
# Description: (§1) Antimicrobial susceptibility testing was performed in accordance with the National Committee for Clinical Laboratory Standards (NCCLS) procedure [M7-A5, 2001]. […] Methods for Dilution Antimicrobial Susceptibility Tests for Bacteria That Grow Aerobically; Approved Standard—Fifth Edition American National Standard
# [2] = test system: Enterococcus faecalis ATCC 29212; settings: ATCC29212, in vitro, read-out: Minimum Inhibitory Concentration (MIC)
# Description: as §1
# [3] = test system: Escherichia coil ATCC 25922; settings: ATCC25922, in vitro, read-out: Minimum Inhibitory Concentration (MIC)
# Description: as §1
# [4] = test system: Staphylococcus aureus ATCC 25923; settings: ATCC25923, in vitro, read-out: Minimum Inhibitory Concentration (MIC)
# Description: as §1
# [5] = test system: Staphylococcus epidermidis ATCC 12228; settings: ATCC12228, in vitro, read-out: Minimum Inhibitory Concentration (MIC)
# Description: as §1
# [6] = test system: Streptococcus pneumoniae ATCC 49619; settings: ATCC49619, in vitro, read-out: Minimum Inhibitory Concentration (MIC)
# Description: as §1
smiles,measurement,setting,value
"COc1cc(Cc2cnc(N)nc2N)c2cc(Cc3ccccc3)oc2c1OC [Example 21, 5-(2-Benzyl-6,7-dimethoxy-benzofuran-4-ylmethyl)-pyrimidine-2,4-diamine]",MIC,[1],0.062 µg/mL
same,MIC,[2],0.125 µg/mL
same,MIC,[3],2 µg/mL
same,MIC,[4],0.062 µg/mL
same,MIC,[5],0.062 µg/mL
same,MIC,[6],0.5 µg/mL
"COc1cc(Cc2cnc(N)nc2N)c2cc(Cc3ccc(F)cc3)oc2c1OC [Example 72, 5-[2-(4-fluoro-benzyl)-6,7-dimethoxy-benzofuran-4-ylmethyl]-pyrimidine-2,4-diamine]",MIC,[1],0.25 µg/mL
same,MIC,[2],1 µg/mL
same,MIC,[3],2 µg/mL
same,MIC,[4],0.25 µg/mL
same,MIC,[5],0.015 µg/mL
same,MIC,[6],0.5 µg/mL
"COc1cc(Cc2cnc(N)nc2N)cc(OC)c1OC [Trimethoprim, 2,4-diamino-5-(3,4,5-trimethoxybenzyl)pyrimidine, reference compound]",MIC,[1],0.5 µg/mL
same,MIC,[2],0.5 µg/mL
same,MIC,[3],0.25 µg/mL
same,MIC,[4],2 µg/mL
same,MIC,[5],0.062 µg/mL
same,MIC,[6],2 µg/mL
"COc1cc(Cc2cnc(N)nc2N)c2cc(CC3CC3)oc2c1OC [Example 20, 5-(2-Cyclopropylmethyl-6,7-dimethoxy-benzofuran-4-ylmethyl)-pyrimidine-2,4-diamine]",MIC,[1],0.062 µg/mL
same,MIC,[2],0.5 µg/mL
same,MIC,[3],4 µg/mL
same,MIC,[4],0.062 µg/mL
same,MIC,[5],0.062 µg/mL
same,MIC,[6],0.125 µg/mL
